Measured values from patent US20080227732A1, “Treatment and Control of Severe Infections Including Cystic Fibrosis” (VENUS REMEDIES LIMITED, priority 2005, published 2008).

What was measured:
MRSA = experiment: Bacterial susceptibility test, disc diffusion on Müeller-Hinton Agar; type: cell-based; conditions: for zone of inhibition: Staphylococcus aureus, MRSA, Concentration 560 mg
Method: (§1) This test was performed by disc diffusion test for ceftazidime and tobramycin on Müeller-Hinton Agar medium purchased from Hi Media. The medium was prepared and used as per manufacturer's instructions. Ceftazidime alone, Tobramycin alone and the combination of Ceftazidime and Tobramycin, on different micro-organisms was taken. […] For each concentration the three zones were observed i.e for combination, Ceftazidime alone and Tobramycin alone and tested for efficacy against various types of micro-organisms.

E. coli = experiment: as above; type: cell-based; conditions: for Zone size: Concentration 1.12 g; for zone of inhibition: Escherichia coli, Concentration 560 mg
Method: as §1

C. albicanus = experiment: as above; type: cell-based; conditions: Concentration 2.18 g
Method: as §1

P. aurignosa = experiment: as above; type: cell-based; conditions: for zone of inhibition: Concentration 560 mg; for Zone size: Concentration 1.12 g
Method: as §1

Stapylococcus = experiment: as above; type: cell-based, Staphylococcus (MSSA); conditions: Concentration 2.18 g
Method: as §1

Klebsiella = experiment: as above; type: cell-based, Klebsiella pneumoniae; conditions: Concentration 2.18 g
Method: as §1

[1] = cited from earlier work
[2] = febrile children with neutropenia, 5 to 10 days of therapy; cited from earlier work
[3] = Concentration 1.12 g, High: C 1.0, T 0.12, I 1.12 mg/ml
[4] = Concentration 1.12 g, Highest: C 10.0, T 1.2, I 11.2 mg/ml
[5] = Concentration 1.12 g, Low: C 0.1, T 0.01, I 0.112 mg/ml
[6] = Concentration 1.12 g, Lowest: C 0.01, T 0.001, I 0.011 mg/ml
[7] = Concentration 2.18 g, High: C 2.0, T 0.18, I 2.18 mg/ml
[8] = Concentration 2.18 g, Highest: C 20.0, T 1.8, I 21.8 mg/ml
[9] = High: C 0.5, T 0.06, I 0.56 mg/ml
[10] = Highest: C 5.0, T 0.6, I 5.6 mg/ml
[11] = Lowest: C 0.005, T 0.0006, I 0.0056 mg/ml
[12] = High: C 1.0, T 0.12, I 1.12 mg/ml
[13] = Highest: C 10.0, T 1.2, I 11.2 mg/ml
[14] = Low: C 0.1, T 0.01, I 0.112 mg/ml
[15] = Lowest: C 0.01, T 0.001, I 0.011 mg/ml
[16] = Low: C 0.05, T 0.006, I 0.056 mg/ml
[17] = High: C 2.0, T 0.18, I 2.18 mg/ml
[18] = Highest: C 20.0, T 1.8, I 21.8 mg/ml
[19] = Low: C 0.2, T 0.018, I 0.218 mg/ml
[20] = Lowest: C 0.02, T 0.0018, I 0.0218 mg/ml

Row | SMILES | Zone size (MRSA; [3]) [mm] | Zone size (MRSA; [4]) [mm] | Zone size (MRSA; [5]) [mm] | Zone size (MRSA; [6]) [mm] | Zone size (MRSA; [7]) [mm] | Zone size (MRSA; [8]) [mm] | zone of inhibition (MRSA; [9]) [mm] | zone of inhibition (MRSA; [10]) [mm] | zone of inhibition (MRSA; [11]) [mm] | Zone size (E. coli; [12]) [mm] | Zone size (E. coli; [13]) [mm] | Zone size (E. coli; [14]) [mm] | Zone size (E. coli; [15]) [mm] | zone of inhibition (E. coli; [9]) [mm] | zone of inhibition (E. coli; [10]) [mm] | zone of inhibition (E. coli; [16]) [mm] | zone of inhibition (E. coli; [11]) [mm] | Zone size (C. albicanus; [17]) [mm] | Zone size (C. albicanus; [18]) [mm] | Zone size (C. albicanus; [19]) [mm] | further results
1 | CC(C)(O/N=C(\C(=O)N[C@@H]1C(=O)N2C(C(=O)[O-])=C(C[n+]3ccccc3)CS[C@H]12)c1csc(N)n1)C(=O)O [C, Ceftazidime] | 12.53 | 22.39 | 0 | 0 | 27.32 | 44.93 | 12.9 | 21.2 | 0 | 42.10 | 47.34 | 35.49 | 33.34 | 42.1 | 47.3 | 35.5 | 33.3 | 31.25 | 37.55 | 18.37 | Zone size (C. albicanus; [20]): 12.90 mm; zone of inhibition (P. aurignosa; [9]): 36 mm; zone of inhibition (P. aurignosa; [10]): 41.8 mm; zone of inhibition (P. aurignosa; [16]): 24.5 mm; zone of inhibition (P. aurignosa; [11]): 14.4 mm; Zone size (P. aurignosa; [12]): 44.10 mm; Zone size (P. aurignosa; [13]): 48.34 mm; Zone size (P. aurignosa; [14]): 32.48 mm; Zone size (P. aurignosa; [15]): 29.34 mm; Zone size (Stapylococcus; [17]): 35.76 mm; Zone size (Stapylococcus; [18]): 50.93 mm; Zone size (Stapylococcus; [19]): 22.45 mm; Zone size (Klebsiella; [17]): 47.47 mm; Zone size (Klebsiella; [18]): 51.22 mm; Zone size (Klebsiella; [19]): 46.30 mm; overall response rate in septicaemia ([1]; cancer patients): 75%; overall response rate ([1]; episodes of infection in cancer patients): 60%; patients clinically cured at the end of therapy [2]: 67%
2 | NC[C@H]1O[C@H](O[C@H]2[C@H](O)[C@@H](O[C@H]3O[C@H](CO)[C@@H](O)[C@H](N)[C@H]3O)[C@H](N)C[C@@H]2N)[C@H](N)C[C@@H]1O [T, Tobramycin] | 22.45 | 33.22 | 10.24 | 9.89 | 14.61 | 17.13 | 23.9 | 32.4 | 9.46 | 25.02 | 30.30 | 22.16 | 14.35 | 25 | 30.3 | 22.2 | 14.3 | 26.45 | 35.47 | 15.65 | zone of inhibition (MRSA; [16]): 11.7 mm; Zone size (C. albicanus; [20]): 0 mm; zone of inhibition (P. aurignosa; [9]): 21.2 mm; zone of inhibition (P. aurignosa; [10]): 32.1 mm; zone of inhibition (P. aurignosa; [16]): 16.7 mm; zone of inhibition (P. aurignosa; [11]): 10.9 mm; Zone size (P. aurignosa; [12]): 23.02 mm; Zone size (P. aurignosa; [13]): 30.31 mm; Zone size (P. aurignosa; [14]): 19.16 mm; Zone size (P. aurignosa; [15]): 11.35 mm; Zone size (Stapylococcus; [17]): 27.49 mm; Zone size (Stapylococcus; [18]): 36.96 mm; Zone size (Stapylococcus; [19]): 16.68 mm; Zone size (Klebsiella; [17]): 32.07 mm; Zone size (Klebsiella; [18]): 38.71 mm; Zone size (Klebsiella; [19]): 31.50 mm
